In assay [1] the target is T1, Mps-1 kinase (Homo sapiens, UniProt P33981).
T1 sequence (P33981 1-857): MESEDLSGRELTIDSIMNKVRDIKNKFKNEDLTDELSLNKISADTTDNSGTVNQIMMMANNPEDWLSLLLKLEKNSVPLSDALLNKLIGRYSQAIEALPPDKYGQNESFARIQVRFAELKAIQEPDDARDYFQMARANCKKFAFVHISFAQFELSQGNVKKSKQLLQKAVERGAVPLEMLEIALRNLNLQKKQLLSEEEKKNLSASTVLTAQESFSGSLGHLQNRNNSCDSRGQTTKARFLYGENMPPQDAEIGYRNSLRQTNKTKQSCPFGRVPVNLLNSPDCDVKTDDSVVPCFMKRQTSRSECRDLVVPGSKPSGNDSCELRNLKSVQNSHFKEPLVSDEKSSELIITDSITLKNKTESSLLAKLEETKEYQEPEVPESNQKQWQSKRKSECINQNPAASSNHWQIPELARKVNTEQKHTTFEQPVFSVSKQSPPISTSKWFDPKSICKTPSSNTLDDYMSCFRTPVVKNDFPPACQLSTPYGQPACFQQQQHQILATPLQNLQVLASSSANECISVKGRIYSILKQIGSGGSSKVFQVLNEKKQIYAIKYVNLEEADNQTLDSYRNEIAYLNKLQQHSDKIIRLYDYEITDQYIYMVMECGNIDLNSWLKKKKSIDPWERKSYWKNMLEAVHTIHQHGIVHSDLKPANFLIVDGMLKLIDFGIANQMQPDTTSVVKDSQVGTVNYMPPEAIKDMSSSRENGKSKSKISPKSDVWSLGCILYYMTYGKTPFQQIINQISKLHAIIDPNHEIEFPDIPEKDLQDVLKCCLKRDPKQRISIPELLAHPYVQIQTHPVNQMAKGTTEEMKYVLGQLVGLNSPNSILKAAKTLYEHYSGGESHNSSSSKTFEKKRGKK
The assay is described as follows: Mps-1 kinase assay with 2 mM ATP (TR-FRET).

The target in assay [2] is T1, Mps-1 kinase. The experiment in a line: Mps-1 kinase assay with 10 μM ATP (TR-FRET).

For the compound `Cc1cc(NS(C)(=O)=O)ccc1Nc1nc2ccc(-c3ccc(NC(=O)Cc4ccc(F)cc4)cc3)cn2n1` [Example 12.34, 2-(4-fluorophenyl)-N-{4-[2-({2-methyl-4-[(methyl-sulfonyl)amino]phenyl}-amino)[1,2,4]triazolo[1,5-a]pyridin-6-yl]phenyl}-acetamide], the IC50 against Mps-1 kinase [1] is 6.6 nM; on Mps-1 kinase [2], not above 1 nM.

For the compound `CCN(Cc1ccc(Nc2nc3ccc(-c4ccc(C(=O)NCc5ccc(F)cc5)cc4)cn3n2)c(OC)c1)C(C)(C)CO` [Example 12.53, 4-{2-[(4-{[ethyl(1-hydroxy-2-methylpropan-2-yl)amino]-methyl}-2-methoxyphenyl)-amino][1,2,4]triazolo[1,5-a]pyridin-6-yl}-N-(4-fluoro-benzyl)benzamide], the IC50 on Mps-1 kinase [1] is 6.9 nM; at Mps-1 kinase [2], not above 1 nM.

As for `COCCNC(=O)c1ccc(Nc2nc3ccc(-c4ccc(C(=O)NCc5ccc(F)cc5)cc4)cn3n2)c(OC)c1` [Example 12.44, 4-[(6-{4-[(4-fluorobenzyl)-carbamoyl]phenyl}[1,2,4]triazolo [1,5-a]pyridin-2-yl)-amino]-3-methoxy-N-(2-methoxyethyl)benzamide], the IC50 against Mps-1 kinase [1] is 1.6 nM; at Mps-1 kinase [2] it was not above 1 nM.

On to `COc1cc(S(C)(=O)=O)c(F)cc1Nc1nc2ccc(-c3ccc(NC(=O)Cc4ccc(F)cc4)cc3)cn2n1` [Example 12.12, N-[4-(2-{[5-fluoro-2-methoxy-4-(methylsulfonyl)-phenyl]amino}[1,2,4]-triazolo[1,5-a]pyridin-6-yl)phenyl]-2-(4-fluoro-phenyl)acetamide], for which the IC50 against Mps-1 kinase [1] is 13 nM; against Mps-1 kinase [2], not above 1 nM.

Consider `COc1cc(C(=O)NCC(F)F)ccc1Nc1nc2ccc(-c3ccc(NC(=O)Cc4ccc(F)cc4)cc3)cn2n1` [Example 12.07, N-(2,2-difluoroethyl)-4-{[6-(4-{[(4-fluorophenyl)-acetyl]amino}phenyl)[1,2,4]triazolo[1,5-a]pyridin-2-yl]amino}-3-methoxy-benzamide], for which the IC50 against Mps-1 kinase [1] and against Mps-1 kinase [2] was not above 1 nM throughout.

As to `Cc1cc([S@@+](C)[O-])ccc1Nc1nc2ccc(-c3ccc(NC(=O)Cc4ccc(F)cc4)cc3)cn2n1` (stereo in doubt) [Example 12.33, 2-(4-fluorophenyl)-N-[4-(2-{[2-methyl-4-(methyl-sulfinyl)phenyl]amino}-[1,2,4]triazolo[1,5-a]pyridin-6-yl)phenyl]acetamide], the IC50 is 1.4 nM at Mps-1 kinase [1] and not above 1 nM against Mps-1 kinase [2].

`Cc1cc(-c2ccc3nc(Nc4ccc(S(C)(=O)=O)cc4OCC(F)(F)F)nn3c2)ccc1C(=O)NCc1ccc(F)cc1` [Example 04.2, N-(4-fluorobenzyl)-2-methyl-4-(2-{[4-(methylsulfonyl)-2-(2,2,2-trifluoro-ethoxy)phenyl]amino}[1,2,4]triazolo[, 5-α]pyridin-6-yl)benzamide]: the IC50 against Mps-1 kinase [1] was 15 nM; at Mps-1 kinase [2] it was not above 1 nM.

As for `Cc1cc(C(=O)NCC(F)(F)F)ccc1Nc1nc2ccc(-c3ccc(C(=O)NCc4ccc(F)cc4)cc3)cn2n1` [Example 12.66, 4-[(6-{4-[(4-fluorobenzyl)-carbamoyl]phenyl}[1,2,4]triazolo [1,5-a]pyridin-2-yl)-amino]-3-methyl-N-(2,2,2-trifluoroethyl)benzamide], the IC50 against Mps-1 kinase [1] was 2 nM; against Mps-1 kinase [2], not above 1 nM.

On to `COc1cc(CO)ccc1Nc1nc2ccc(-c3ccc(C(=O)NCc4ccc(F)cc4)cc3)cn2n1` [Example 12.85, N-(4-fluorobenzyl)-4-(2-{[4-(hydroxymethyl)-2-methoxyphenyl]amino}-[1,2,4]triazolo[1,5-α]pyridin-6-yl)benzamide], for which the half-inhibitory concentration (IC50) at Mps-1 kinase [1] was 2.2 nM; at Mps-1 kinase [2], not above 1 nM.

As for `Cc1cc([S@@+](C)[O-])ccc1Nc1nc2ccc(-c3ccc(C(=O)NCc4ccc(F)cc4)cc3)cn2n1` (stereo in doubt) [Example 12.69, N-(4-fluorobenzyl)-4-(2-{[2-methyl-4-(methylsulfinyl)-phenyl]amino}[1,2,4]triazolo [1,5-a]pyridin-6-yl)-benzamide], the half-maximal inhibitory concentration (IC50) was 4.5 nM against Mps-1 kinase [1] and not above 1 nM against Mps-1 kinase [2].

`CC(C)S(=O)(=O)c1ccc(Nc2nc3ccc(-c4ccc(C(=O)NCc5ccc(F)cc5)cc4)cn3n2)c(OC(F)F)c1` [Example 12.62, 4-(2-{[2-(difluoromethoxy)-4-(propan-2-ylsulfonyl)-phenyl]amino}[1,2,4]-triazolo[1,5-a]pyridin-6-yl)-N-(4-fluorobenzyl)-benzamide]: the IC50 against Mps-1 kinase [1] is 3.5 nM; against Mps-1 kinase [2], not above 1 nM.

Take `CCS(=O)(=O)c1ccc(Nc2nc3ccc(-c4ccc(C(=O)NCc5ccc(F)cc5)cc4)cn3n2)c(OC(F)F)c1` [Example 12.61, 4-(2-{[2-(difluoromethoxy)-4-(ethylsulfonyl)phenyl]-amino}[1,2,4]triazolo[1,5-a]pyridin-6-yl)-N-(4-fluorobenzyl)benzamide]: the concentration for half-maximal inhibition (IC50) at Mps-1 kinase [1] is 6.1 nM; at Mps-1 kinase [2], not above 1 nM.

For `CCNC(=O)c1ccc(Nc2nc3ccc(-c4ccc(C(=O)NCc5ccc(F)cc5)cc4)cn3n2)c(C)c1` [Example 12.64, N-ethyl-4-[(6-{4-[(4-fluoro-benzyl)carbamoyl]phenyl}-[1,2,4]triazolo[1,5-a]pyridin-2-yl)amino]-3-methyl-benzamide], the results for the IC50 against Mps-1 kinase [1] and against Mps-1 kinase [2] were 1.6 nM and not above 1 nM, respectively.

Take `COc1cc([S@@+](C)[O-])ccc1Nc1nc2ccc(-c3ccc(NC(=O)Cc4ccc(F)cc4)cc3)cn2n1` (stereo in doubt) [Example 12.13, 2-(4-fluorophenyl)-N-[4-(2-{[2-methoxy-4-(methyl-sulfinyl)phenyl]amino}-[1,2,4]triazolo[1,5-a]pyridin-6-yl)phenyl]acetamide]: the IC50 against Mps-1 kinase [1] and against Mps-1 kinase [2] was not above 1 nM throughout.

On to `CCNC(=O)c1cc(C)c(Nc2nc3ccc(-c4ccc(NC(=O)Cc5ccc(F)cc5)cc4)cn3n2)cn1` [Example 12.37, N-ethyl-5-{[6-(4-{[(4-fluoro-phenyl)acetyl]amino}-phenyl)[1,2,4]triazolo[1,5-a]pyridin-2-yl]amino}-4-methylpyridine-2-carboxamide], for which the values for the IC50 against Mps-1 kinase [1] and against Mps-1 kinase [2] were 13 nM and not above 1 nM, respectively.

With `CS(=O)(=O)c1ccc(Nc2nc3ccc(-c4ccc(C(=O)NCc5ccc(F)cc5)cc4)cn3n2)c(OC(F)F)c1` [Example 02.28, 4-(2-{[2-(difluoromethoxy)-4-(methylsulfonyl)phenyl]amino}[1,2,4]triazolo-[1,5-α]pyridin-6-yl)-N-(4-fluorobenzyl)benzamide], the IC50 against Mps-1 kinase [1] is 3.5 nM; against Mps-1 kinase [2] it was not above 1 nM.

Regarding `CCOc1cc(C(=O)N(C)CC)ccc1Nc1nc2ccc(-c3ccc(C(=O)NCc4ccc(F)cc4)cc3)cn2n1` [Example 12.56, 3-ethoxy-N-ethyl-4-[(6-{4-[(4-fluorobenzyl)carbamoyl]phenyl}[1,2,4]triazolo[1,5-a]pyridin-2-yl)amino]-N-methylbenzamide], the IC50 at Mps-1 kinase [1] and at Mps-1 kinase [2] was not above 1 nM each time.

Regarding `CCOc1cc(S(=O)(=O)CC)ccc1Nc1nc2ccc(-c3ccc(NC(=O)Cc4ccc(F)cc4)cc3)cn2n1` [Example 01.33, N-[4-(2-{[2-ethoxy-4-(ethylsulfonyl)phenyl]amino}[1,2,4]triazolo[1,5-α]-pyridin-6-yl)phenyl]-2-(4-fluorophenyl)acetamide], the IC50 against Mps-1 kinase [1] was 1.3 nM; at Mps-1 kinase [2], not above 1 nM.

Source of the values: patent publication US20140120087A1, “TRIAZOLOPYRIDINES” (BAYER INTELLECTUAL PROPERTY GMBH, priority 2011, published 2014).
